The target of one experiment is JH2 domain of human Tyk2 (Homo sapiens (Human), UniProt P29597). Description: JH2 Biochemical Assay (TR-FRET probe displacement). In kind it is binding. Conditions: JH2 domain of human Tyk2, TR-FRET probe displacement. A general note: In TR-FRET formats the signal depends on donor and acceptor labels being close together.
The target of the next experiment is Tyk2 (Homo sapiens (Human), UniProt P29597). Description: pSTAT4 Cell Assay (MSD, NK92 cells). The experiment is classed as cell-based. Conditions: MSD.
Sequence of Tyk2 (P29597 whole entry): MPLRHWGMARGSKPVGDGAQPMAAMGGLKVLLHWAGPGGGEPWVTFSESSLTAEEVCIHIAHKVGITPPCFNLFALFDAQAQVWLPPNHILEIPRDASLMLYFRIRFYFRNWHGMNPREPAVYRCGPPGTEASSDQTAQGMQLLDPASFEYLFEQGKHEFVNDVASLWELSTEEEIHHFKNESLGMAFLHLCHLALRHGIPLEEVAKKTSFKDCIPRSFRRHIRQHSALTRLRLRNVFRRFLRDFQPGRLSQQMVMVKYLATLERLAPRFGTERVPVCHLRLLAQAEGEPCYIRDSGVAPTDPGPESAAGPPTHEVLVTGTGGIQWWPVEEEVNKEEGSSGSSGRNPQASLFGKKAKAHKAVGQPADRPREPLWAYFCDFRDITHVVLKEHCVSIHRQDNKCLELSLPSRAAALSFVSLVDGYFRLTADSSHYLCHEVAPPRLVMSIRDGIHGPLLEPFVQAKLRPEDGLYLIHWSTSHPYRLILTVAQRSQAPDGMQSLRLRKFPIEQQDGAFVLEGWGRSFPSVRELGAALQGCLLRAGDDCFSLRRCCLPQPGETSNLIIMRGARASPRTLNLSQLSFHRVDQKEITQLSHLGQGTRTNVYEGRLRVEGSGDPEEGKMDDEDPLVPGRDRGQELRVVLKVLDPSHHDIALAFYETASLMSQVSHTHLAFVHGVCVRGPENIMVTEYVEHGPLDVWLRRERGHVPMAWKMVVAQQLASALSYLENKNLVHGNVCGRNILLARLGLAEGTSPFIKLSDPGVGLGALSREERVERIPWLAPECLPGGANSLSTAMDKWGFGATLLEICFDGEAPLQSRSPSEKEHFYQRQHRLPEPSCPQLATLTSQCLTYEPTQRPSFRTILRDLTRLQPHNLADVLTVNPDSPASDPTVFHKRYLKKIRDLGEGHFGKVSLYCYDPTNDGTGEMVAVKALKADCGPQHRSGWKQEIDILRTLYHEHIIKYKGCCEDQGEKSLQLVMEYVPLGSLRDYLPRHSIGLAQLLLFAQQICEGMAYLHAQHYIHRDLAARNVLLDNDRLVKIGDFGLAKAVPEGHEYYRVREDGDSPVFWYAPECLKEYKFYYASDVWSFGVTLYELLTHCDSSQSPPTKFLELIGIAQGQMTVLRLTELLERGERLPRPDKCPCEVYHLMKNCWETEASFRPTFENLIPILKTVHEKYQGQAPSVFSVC

This note sets out measurements from patent US20260028365A1 (BIOGEN MA INC., priority 2022, published 2026).

Structures are written as SMILES. A value given as a limit tells only on which side of the number the result lay.

Sequence of JH2 domain of human Tyk2 (P29597 575-876): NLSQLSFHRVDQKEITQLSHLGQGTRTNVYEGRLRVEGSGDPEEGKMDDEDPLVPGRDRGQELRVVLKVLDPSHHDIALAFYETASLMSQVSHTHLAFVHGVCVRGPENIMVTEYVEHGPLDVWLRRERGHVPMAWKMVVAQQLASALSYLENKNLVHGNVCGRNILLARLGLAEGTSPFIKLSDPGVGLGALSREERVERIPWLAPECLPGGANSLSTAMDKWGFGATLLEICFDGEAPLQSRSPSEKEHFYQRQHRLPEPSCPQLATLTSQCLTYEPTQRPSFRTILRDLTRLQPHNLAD

Turning to `CCOc1cnc(NC(C)=O)cc1Nc1ccc(-c2ccn(C)n2)c(OC)n1` [Example 491, N-(5-ethoxy-4-((6-methoxy-5-(1-methyl-1H-pyrazol-3-yl)pyridin-2-yl)amino)pyridin-2-yl)acetamide], the IC50 at JH2 domain of human Tyk2 is 0.01 to 0.1 µM; on Tyk2 it was not below 1 µM.
For `COC(C)(C)COc1cnc(NC(C)=O)cc1Nc1cc(C)nc(C(C)(F)F)n1` [Example 492, N-(4-((2-(1,1-difluoroethyl)-6-methylpyrimidin-4-yl)amino)-5-(2-methoxy-2-methylpropoxy)pyridin-2-yl)acetamide] the same measures were not above 0.01 µM and 0.01 to 0.1 µM.
Consider `COC1(COc2cnc(NC(C)=O)cc2Nc2cc(C)nc(C(C)(F)F)n2)CCC1` [Example 493, N-(4-((2-(1,1-difluoroethyl)-6-methylpyrimidin-4-yl)amino)-5-((1-methoxycyclobutyl)methoxy)pyridin-2-yl)acetamide], for which the IC50 is not above 0.01 µM at JH2 domain of human Tyk2 and 0.01 to 0.1 µM at Tyk2.
Taken in the same sequence, the figures for `CC(=O)Nc1cc(Nc2cc(C)nc(C(C)(F)F)n2)c(OC[C@@H]2CCN(C3CC3)C2)cn1` [Example 494, (R)-N-(5-((1-cyclopropylpyrrolidin-3-yl)methoxy)-4-((2-(1,1-difluoroethyl)-6-methylpyrimidin-4-yl)amino)pyridin-2-yl)acetamide] were not above 0.01 µM and 0.01 to 0.1 µM.
For `CC(=O)Nc1cc(Nc2cc(C)nc(C(C)(F)F)n2)c(OCc2ccon2)cn1` [Example 495, N-(4-((2-(1,1-difluoroethyl)-6-methylpyrimidin-4-yl)amino)-5-(isoxazol-3-ylmethoxy)pyridin-2-yl)acetamide] the same measures were not above 0.01 µM and 0.01 to 0.1 µM.
For `CC(=O)Nc1cc(Nc2cc(C)nc(C(C)(F)F)n2)c(OCc2nccn2C)cn1` [Example 496, N-(4-((2-(1,1-difluoroethyl)-6-methylpyrimidin-4-yl)amino)-5-((1-methyl-1H-imidazol-2-yl)methoxy)pyridin-2-yl)acetamide] the same measures were 0.01 to 0.1 µM and not below 1 µM.
Turning to `CC(=O)Nc1cc(Nc2cc(C)nc(C(C)(F)F)n2)c(OCc2cc(C)on2)cn1` [Example 497, N-(4-((2-(1,1-difluoroethyl)-6-methylpyrimidin-4-yl)amino)-5-((5-methylisoxazol-3-yl)methoxy)pyridin-2-yl)acetamide], the IC50 on JH2 domain of human Tyk2 was not above 0.01 µM; against Tyk2 it was 0.01 to 0.1 µM.
For `CC(=O)Nc1cc(Nc2cc(C)nc(C(C)(F)F)n2)c(OCc2noc(C)n2)cn1` [Example 498, N-(4-((2-(1,1-difluoroethyl)-6-methylpyrimidin-4-yl)amino)-5-((5-methyl-1,2,4-oxadiazol-3-yl)methoxy)pyridin-2-yl)acetamide] the same measures were not above 0.01 µM and 0.1 to 1 µM.
On to `CC(=O)Nc1cc(Nc2cc(C)nc(C(C)(F)F)n2)c(OCC2CCC(=O)O2)cn1` (stereo not drawn) [Example 499, N-(4-((2-(1,1-difluoroethyl)-6-methylpyrimidin-4-yl)amino)-5-((5-oxotetrahydrofuran-2-yl)methoxy)pyridin-2-yl)acetamide], for which the values for the IC50 at JH2 domain of human Tyk2 and on Tyk2 were not above 0.01 µM and 0.01 to 0.1 µM, respectively.
Taken in the same sequence, the figures for `CC(=O)Nc1cc(Nc2cc(C)nc(C(C)(F)F)n2)c(OC[C@@H]2CCC(=O)N2)cn1` [Example 500, (S)-N-(4-((2-(1,1-difluoroethyl)-6-methylpyrimidin-4-yl)amino)-5-((5-oxopyrrolidin-2-yl)methoxy)pyridin-2-yl)acetamide] were not above 0.01 µM and 0.1 to 1 µM.
Taken in the same sequence, the figures for `CC(=O)Nc1cc(Nc2cc(C)nc(C(C)(F)F)n2)c(OCCC2CCCN2C)cn1` (stereo not drawn) [Example 501, N-(4-((2-(1,1-difluoroethyl)-6-methylpyrimidin-4-yl)amino)-5-(2-(1-methylpyrrolidin-2-yl)ethoxy)pyridin-2-yl)acetamide] were not above 0.01 µM and 0.1 to 1 µM.
With `CC(=O)Nc1cc(Nc2cc(C)nc(C(C)(F)F)n2)c(OC[C@H]2CCC(=O)N2)cn1` [Example 502, (R)-N-(4-((2-(1,1-difluoroethyl)-6-methylpyrimidin-4-yl)amino)-5-((5-oxopyrrolidin-2-yl)methoxy)pyridin-2-yl)acetamide], the results for the IC50 on JH2 domain of human Tyk2 and against Tyk2 were not above 0.01 µM and 0.1 to 1 µM, respectively.
Taken in the same sequence, the figures for `CC(=O)Nc1cc(Nc2cc(C)nc(C(C)(F)F)n2)c(OCC2CN(C(C)C)CCO2)cn1` (stereo not drawn) [Example 503, N-(4-((2-(1,1-difluoroethyl)-6-methylpyrimidin-4-yl)amino)-5-((4-isopropylmorpholin-2-yl)methoxy)pyridin-2-yl)acetamide] were not above 0.01 µM and 0.01 to 0.1 µM.
On to `CC(=O)Nc1cc(Nc2cc(C)nc(C(C)(F)F)n2)c(OCc2cnoc2)cn1` [Example 504, N-(4-((2-(1,1-difluoroethyl)-6-methylpyrimidin-4-yl)amino)-5-(isoxazol-4-ylmethoxy)pyridin-2-yl)acetamide], for which the IC50 at JH2 domain of human Tyk2 is not above 0.01 µM; at Tyk2 it was 0.01 to 0.1 µM.
For `CC(=O)Nc1cc(Nc2cc(C)nc(C(C)(F)F)n2)c(OCc2cocn2)cn1` [Example 505, N-(4-((2-(1,1-difluoroethyl)-6-methylpyrimidin-4-yl)amino)-5-(oxazol-4-ylmethoxy)pyridin-2-yl)acetamide] the same measures were not above 0.01 µM and 0.01 to 0.1 µM.
For `CC(=O)Nc1cc(Nc2cc(C)nc(C(C)(F)F)n2)c(OCC2CN(C)C2)cn1` [Example 506, N-(4-((2-(1,1-difluoroethyl)-6-methylpyrimidin-4-yl)amino)-5-((1-methylazetidin-3-yl)methoxy)pyridin-2-yl)acetamide] the same measures were not above 0.01 µM and 0.1 to 1 µM.
Turning to `CCOCCOc1cnc(NC(C)=O)cc1Nc1cc(C)nc(C(C)(F)F)n1` [Example 507, N-(4-((2-(1,1-difluoroethyl)-6-methylpyrimidin-4-yl)amino)-5-(2-ethoxyethoxy)pyridin-2-yl)acetamide], the half-inhibitory concentration (IC50) on JH2 domain of human Tyk2 and at Tyk2 was not above 0.01 µM each time.
With `CC(=O)Nc1cc(Nc2cc(C)nc(C(C)(F)F)n2)c(OCc2cnn(C)c2)cn1` [Example 508, N-(4-((2-(1,1-difluoroethyl)-6-methylpyrimidin-4-yl)amino)-5-((1-methyl-1H-pyrazol-4-yl)methoxy)pyridin-2-yl)acetamide], the half-inhibitory concentration (IC50) at JH2 domain of human Tyk2 was not above 0.01 µM; against Tyk2 it was 0.01 to 0.1 µM.
For `CCn1cc(COc2cnc(NC(C)=O)cc2Nc2cc(C)nc(C(C)(F)F)n2)cn1` [Example 509, N-(4-((2-(1,1-difluoroethyl)-6-methylpyrimidin-4-yl)amino)-5-((1-ethyl-1H-pyrazol-4-yl)methoxy)pyridin-2-yl)acetamide] the same measures were not above 0.01 µM and 0.01 to 0.1 µM.
Taken in the same sequence, the figures for `CC(=O)Nc1cc(Nc2cc(C)nc(C(C)(F)F)n2)c(OCC2CC(=O)N(C(C)C)C2)cn1` (stereo not drawn) [Example 510, N-(4-((2-(1,1-difluoroethyl)-6-methylpyrimidin-4-yl)amino)-5-((1-isopropyl-5-oxopyrrolidin-3-yl)methoxy)pyridin-2-yl)acetamide] were not above 0.01 µM and 0.1 to 1 µM.
For `CC(=O)Nc1cc(Nc2cc(C)nc(C(C)(F)F)n2)c(OCC2CC(=O)N(C)C2)cn1` (stereo not drawn) [Example 511, N-(4-((2-(1,1-difluoroethyl)-6-methylpyrimidin-4-yl)amino)-5-((1-methyl-5-oxopyrrolidin-3-yl)methoxy)pyridin-2-yl)acetamide] the same measures were 0.01 to 0.1 µM and 0.1 to 1 µM.

In general, IC50 refers to the concentration that inhibits the measured activity by half. A high value points to weaker potency in that assay.
